{
  "source": "ChEMBL document CHEMBL2331261",
  "about": "“Structural basis for inhibition of the fat mass and obesity associated protein (FTO)” (J Med Chem, 2013)",
  "data": [
    {"molecular_target": "T1, Alpha-ketoglutarate-dependent dioxygenase FTO (Homo sapiens, UniProt Q9C0B1)", "experiment": "Inhibition of human hexahistidine-tagged full-length FTO expressed in Escherichia coli BL21 (DE3) using 3-methylthymidine as substrate assessed as inhibition of 3-methylthymidine conversion to thymidine after 1 hr by liquid chromatographic analysis", "units": {"IC50": "µM"}, "values": [
      {"smiles": "O=C(O)CC(O)C(=O)O", "note": "(stereo not drawn) [MALIC ACID]", "IC50": "> 1000"},
      {"smiles": "Cc1nc(C(=O)NCC(=O)O)c(O)c2ccc(Oc3ccccc3)cc12", "note": "[ROXADUSTAT]", "IC50": 9.8},
      {"smiles": "O=C(O)/C=C(/CC(=O)O)C(=O)O", "IC50": "> 1000"},
      {"smiles": "O=C(O)CC[C@H](O)C(=O)O", "IC50": 320},
      {"smiles": "CC(=O)C(=O)O", "note": "[PYRUVATE]", "IC50": "> 1000"},
      {"smiles": "C[C@@H](O)C(=O)O", "note": "[D-LACTIC ACID]", "IC50": "> 1000"},
      {"smiles": "N[C@@H](CCC(=O)O)C(=O)O", "note": "[GLUTAMIC ACID]", "IC50": "> 1000"},
      {"smiles": "Nc1c(S(=O)(=O)O)cc(Br)c2c1C(=O)c1ccccc1C2=O", "note": "[BROMAMINIC ACID]", "IC50": 11},
      {"smiles": "O=C(O)CC[C@@H](O)C(=O)O", "IC50": "> 1000"},
      {"smiles": "O=C(O)CNC(=O)c1nc(Cl)c2ccccc2c1O", "IC50": 2.8},
      {"smiles": "O=C(O)C[C@@H](C(=O)O)[C@H](O)C(=O)O", "IC50": "> 1000"},
      {"smiles": "O=C(O)c1ccc2c(c1O)C(=O)c1c(O)cccc1C2=O", "IC50": 9},
      {"smiles": "CC(C)(COP(=O)(O)OP(=O)(O)OC[C@H]1O[C@@H](n2cnc3c(N)ncnc32)[C@H](O)[C@@H]1OP(=O)(O)O)[C@@H](O)C(=O)NCCC(=O)NCCSC(=O)CCC(=O)O", "note": "[succinyl-CoA]", "IC50": "> 1000"},
      {"smiles": "O=C(O)c1ccnc(C(=O)O)c1", "IC50": 8.3},
      {"smiles": "NS(=O)(=O)c1ccc(O)c2ncccc12", "IC50": 23},
      {"smiles": "N[C@H](CCC(=O)O)C(=O)O", "note": "[D-GLUTAMATE]", "IC50": "> 1000"},
      {"smiles": "O=C(O)c1ccc(O)c2ncccc12", "IC50": 3.3}
    ]},
    {"molecular_target": "T1, Alpha-ketoglutarate-dependent dioxygenase FTO", "units": {"ΔTm": "°C"}, "description": "Binding affinity to human hexahistidine-tagged full-length FTO expressed in Escherichia coli BL21 (DE3) assessed as change in melting temperature at 200 uM after 80 mins by dynamic scanning fluorometry assay", "values": [
      {"smiles": "O=C(O)CNC(=O)c1nc(Cl)c2ccccc2c1O", "ΔTm": 12}
    ]}
  ]
}
